Results: the OPERA property sets (Mansouri et al. 2018)

Settings: for log10 BCF / log10 biotransformation half-life (days): fish

SMILES	boiling point [°C]	melting point [°C]	further results
FC(F)(F)C(Cl)=C(Cl)C(F)(F)F	68.5	-67.3	
O=C(O)CCC(=O)OOC(=O)CCC(=O)O		127	
Cc1cc(C)c(C=O)c(C)c1	238	14	
CCCCCCCCOC(=O)c1cc(O)c(O)c(O)c1		102	
C#CC(O)(C=CCl)CC (stereo not given)	174		log10 vapour pressure (mmHg): -1
O=C1OC(=O)c2c(F)c(F)c(F)c(F)c21		95	
Oc1ccc(C2CCCCC2)cc1Cl		40.5	
COCC(O)CO (stereo not given)	220		
COc1ccccc1N=Nc1c(O)ccc2ccccc12		183	
O=[N+]([O-])c1cc(Br)ccc1Br		85.5	
COC(=O)c1ccccn1		18.7	
Oc1ccc(Br)c(O)c1		103	
COc1cccc(CC(=O)O)c1		72	
O=C(O)[C@H](O)[C@@H](O)C(=O)O (racemic)		174	
C1=CC2C3C=CC(C3)C2C1 (stereo not given)	170	15.5	log10 vapour pressure (mmHg): 0.361; ready biodegradability: not readily biodegradable; log10 BCF: 2.34
Oc1ccccc1-c1ccccc1O	320	109	
C=CCCCCCCCCC=C	208		
COP(=O)(OC)OC(Br)C(Cl)(Cl)Br (stereo not given)		27	log10 Koc (L/kg): 2.26; log10 vapour pressure (mmHg): -3.7
CCC(CO)[N+](=O)[O-] (stereo not given)		-47	
O=S(Cc1ccccc1)Cc1ccccc1		134	
O=C1CCCN1	245	23	log10 vapour pressure (mmHg): -2.02
CC(CNC1CCCCC1)OC(=O)c1ccccc1.Cl (stereo not given)		178	

SMILES	boiling point [°C]	melting point [°C]	further results
CC1(C)N=C(N)N=C(N)N1c1ccc(Cl)cc1		146	
OCCCl	129	-67.5	log10 Koa: 4.3; log10 vapour pressure (mmHg): 0.856; ready biodegradability: readily biodegradable
COc1cc2ccc(=O)oc2cc1O		204	
Cc1ccc(-c2ccccc2)cc1C	282	29.5	
COc1ccc(CN(CCN(C)C)c2ncccn2)cc1.Cl		174	
FC(F)OC(C(F)(F)F)C(F)(F)F	42.1		log10 vapour pressure (mmHg): 2.59
CCOP(=S)(OCC)Oc1ccc(SC)cc1			log10 Koc (L/kg): 3.18
O=C(OCCOCCOC(=O)c1ccccc1)c1ccccc1		33.5	
Oc1ccc2c(c1)[C@@]13CCCC[C@H]1[C@@H](C2)N(CC1CC1)CC3		188	
C#C[C@]1(O)CC[C@H]2[C@@H]3CCc4cc(O)ccc4[C@H]3[C@@H](OC)C[C@@]21C		280	
CCCC(=O)O		-5.7	log10 Henry constant (atm·m³/mol): -6.27; log10 vapour pressure (mmHg): 0.217; ready biodegradability: readily biodegradable
COc1cc(C)ccc1C	194		
CCOc1cccc(Cl)c1	207		
O=CCCc1ccccc1	224		
Clc1c(Cl)c(Cl)c2c(Cl)c(Cl)c(Cl)c(Cl)c2c1Cl		198	log10 Koa: 11.1; log10 Koc (L/kg): 5.89; log10 vapour pressure (mmHg): -7.96; log10 BCF: 2.58; log10 biotransformation half-life (days): 1.62
CC(C)NCC(O)COc1ccc(COCCOC(C)C)cc1 (stereo not given)		100	
c1ccc(Cc2ccccc2)cc1	265	25.2	log10 vapour pressure (mmHg): -2.09; ready biodegradability: not readily biodegradable; log10 BCF: 2.94
C[C@@H](N)C(C)(C)C	102	-20	
CCCCC1CCC(=O)O1 (stereo not given)	234		
C/C=C/C(=O)c1ccccc1		20.5	
Cc1ccc(N(C)C)cc1	211		log10 vapour pressure (mmHg): -0.75
C1CCC2CCCCC2C1 (stereo not given)	180	-38.7	log10 Koc (L/kg): 3.67; log10 vapour pressure (mmHg): 0.114; ready biodegradability: not readily biodegradable; log10 BCF: 3.25

SMILES	boiling point [°C]	melting point [°C]	further results
CCOC(=O)C=[N+]=[N-]		-22	log10 vapour pressure (mmHg): 0.447
CCOP(=O)(OCC)SCc1ccccc1			log10 Koc (L/kg): 2.4
COc1cccc(O)c1	244		log10 Henry constant (atm·m³/mol): -7.24; log10 Koc (L/kg): 1.5; log10 vapour pressure (mmHg): -1.71; ready biodegradability: readily biodegradable
O=C1C2CC=CCC2C(=O)N1SC(Cl)(Cl)Cl (stereo not given)		178	log10 Koc (L/kg): 2.3; log10 vapour pressure (mmHg): -7.05; ready biodegradability: not readily biodegradable; log10 BCF: 1.98
O=C1c2ccccc2-c2c(O)cccc21		250	
COc1ccc2c(c1)CCCN2	284	42.5	
Cc1cc(-n2nc3ccc(Cl)cc3n2)c(O)c(C(C)(C)C)c1			ready biodegradability: not readily biodegradable
Clc1ccccc1	132	-45.2	log10 Henry constant (atm·m³/mol): -2.51; log10 Koa: 3.31; log10 Koc (L/kg): 2.15; log10 vapour pressure (mmHg): 1.08; ready biodegradability: not readily biodegradable; log10 BCF: 1.25; log10 biotransformation half-life (days): -1.02
CC(C)c1ccc2c(c1)CC[C@H]1[C@](C)(C(=O)O)CCC[C@]21C			log10 BCF: 2.12
Oc1cc(O)c(Cl)cc1Cl	254	113	
CN(C)C1CCCCC1	160		log10 Henry constant (atm·m³/mol): -4.63
CC(=O)c1ccc(C)cc1O	245	21	
Cc1ccccc1OC(=O)c1ccccc1	309		
ClC(Cl)C(Cl)Cl	146	-43.8	log10 Henry constant (atm·m³/mol): -3.44; log10 Koc (L/kg): 1.9; log10 vapour pressure (mmHg): 0.665; ready biodegradability: not readily biodegradable; log10 BCF: 1.11; log10 biotransformation half-life (days): -0.67
Cc1cc(O)c2c(c1)C(=O)c1cc(O)cc(O)c1C2=O		257	
Nc1c(Br)cc([N+](=O)[O-])cc1Br		207	
CCCCCCCCCC(Br)C(=O)O (stereo not given)		10	
CCC(OC(N)=O)C1CCCCC1 (stereo not given)		128	
Clc1ccccc1-c1c(Cl)cccc1Cl			log10 Henry constant (atm·m³/mol): -3.64; log10 biotransformation half-life (days): 2.5
C=C(Br)CC	88	-133	
C1=Cc2cc3ccc(cc4nc(cc5ccc(cc1n2)[nH]5)C=C4)[nH]3		360	
C=CC(=O)OCCOC(=O)C=C			log10 vapour pressure (mmHg): -1.18

SMILES	boiling point [°C]	melting point [°C]	further results
O=C1c2ccccc2-c2cccc3cccc1c23		170	ready biodegradability: not readily biodegradable; log10 BCF: 2.09; log10 biotransformation half-life (days): -0.69
CCCCCCC/C=C\C(=O)O		12	
CCCC(=O)CC	124	-55.5	log10 vapour pressure (mmHg): 1.14; ready biodegradability: not readily biodegradable
CC(=O)OCC(=O)[C@H]1CC[C@H]2[C@@H]3CC=C4C[C@@H](O)CC[C@]4(C)[C@H]3CC[C@]12C		184	
COCC(C)OC (stereo not given)	96		
C=CCN(CC=C)C(=O)CCl			log10 Koc (L/kg): 1.3; log10 vapour pressure (mmHg): -2.03
C=COCCO	142		
COC(=O)c1ccccc1C(=O)O		83	
Cc1ccc(S(=O)(=O)O)cc1		104	ready biodegradability: readily biodegradable
FC(F)(F)c1ccc(Cl)cc1Cl	178	-26	log10 vapour pressure (mmHg): 0.0449; log10 BCF: 3.37; log10 biotransformation half-life (days): 1.81
O=C(CCCN1CCC(O)(c2ccc(Cl)cc2)CC1)c1ccc(F)cc1		152	
CC(C)C(O)CO (stereo not given)	206		
C[S@](=O)c1ccccc1	264	32	
CCC1C=CCC1 (stereo not given)	97.8		
FC(OC(F)(F)C(F)(F)C(F)(F)F)C(F)(F)F (stereo not given)	41		
O=C1CCCCCCCCCCC(=O)OCCO1		18	
CCc1oc2ccccc2c1C(=O)c1cc(I)c(O)c(I)c1		167	
O=C(OCCOc1ccc(Cl)cc1Cl)c1ccccc1		66	
CN(C=O)c1ccccc1	243	14.5	
CC(C)(C)c1ccccc1	169	-57.8	log10 vapour pressure (mmHg): 0.343; ready biodegradability: readily biodegradable
CC(Cl)C[N+](=O)[O-] (stereo not given)	172		
C=C(C)CCCCCCCCC			log10 biotransformation half-life (days): 0.17

SMILES	boiling point [°C]	melting point [°C]	further results
Cc1cc(C)nc(Nc2ccccc2)n1		96.3	log10 vapour pressure (mmHg): -4.78
c1ccc(Nc2ccc(Nc3ccccc3)cc2)cc1			log10 vapour pressure (mmHg): -8.2; ready biodegradability: not readily biodegradable; log10 BCF: 3.12
CCCCCOC(C)=O	149	-70.8	log10 Henry constant (atm·m³/mol): -3.41; log10 Koa: 4.12; log10 vapour pressure (mmHg): 0.544
C=CCOc1ccc(CC(=O)O)cc1Cl		92.5	
OCc1cccnc1	266	-6.5	
COc1ccc(CC#N)cc1OC		62.8	
C[Si](C)(F)c1ccccc1			log10 vapour pressure (mmHg): 0.463
CC(C)N(C(=O)COc1nnc(C(F)(F)F)s1)c1ccc(F)cc1		76	log10 vapour pressure (mmHg): -6.17
CCCCCCCCCCCCCCCCCCCCCl			log10 vapour pressure (mmHg): -5.62
CC(C)CCN	96		
CC(C)(Br)Br	115		
COCCOCCOCCOCCOC	275		
COc1cc([C@@H]2c3cc4c(cc3[C@H](O)[C@H]3COC(=O)[C@@H]23)OCO4)cc(OC)c1OC		206	
C=CCC[C@@H](C)CC	113		
CC1=CC(=O)C=CC1=O		69	
Cl.NCCc1ccccc1		218	
Cc1ccc(C(C)(C)C)cc1	190	-52	ready biodegradability: readily biodegradable; log10 biotransformation half-life (days): 0.31
Clc1cc(Cl)c2c(Cl)ccc(Cl)c2c1			log10 Koa: 8.28
Cc1ccc(N=Nc2ccccc2)cc1	312	71.5	
Brc1cccc(I)c1	252	-9.3	
O=C1CSC2(CCN(CCCN3c4ccccc4Sc4ccc(Cl)cc43)CC2)N1		155	
CCCCCC#CC(=O)OC	218		

SMILES	boiling point [°C]	melting point [°C]	further results
CC[C@@H](CO)NC(=O)[C@@H]1C=C2c3cccc4c3c(cn4C)C[C@H]2N(C)C1		195	
C=C1[C@H]2CC[C@@H]3[C@H]2C(C)(C)CCC[C@]13C	258		
Cc1nccs1	128		
CC[N+](C)(CC)CCOC(=O)C(O)(c1ccccc1)C1CCCCC1.[Br-] (stereo not given)		192	
C=CC1CC=CCC1 (stereo not given)	128	-109	log10 vapour pressure (mmHg): 1.2; ready biodegradability: not readily biodegradable; log10 BCF: 2.22; log10 biotransformation half-life (days): -0.41
CCC(CC)c1ccccc1	188		
S=C=Nc1cccc(Br)c1	256		
O[C@H]1[C@H](O)[C@@H](O)[C@H](O)[C@@H](O)[C@H]1O (racemic)		237	
CCCCc1ccc(O)cc1	248	22	log10 vapour pressure (mmHg): -2.65
CCC(CO)O[N+](=O)[O-] (stereo not given)			log10 Henry constant (atm·m³/mol): -6.78
O=C(O)c1cc(Cl)cc(Cl)c1O		220	
O=C(O)/C=C/c1c[nH]cn1		225	
C=CC(=O)OCCC			log10 vapour pressure (mmHg): 1.16
FCC(F)(F)OC(F)F	43		log10 vapour pressure (mmHg): 2.57
CC(=O)Nc1ccccc1F		78	
CC(C)OC(=O)c1cc(-c2nn(C)c(C(F)(F)F)c2Br)c(F)cc1Cl		80	log10 vapour pressure (mmHg): -7.15
COc1cc(NS(=O)(=O)c2ccc(N)cc2)nc(C)n1		146	
Clc1cccc(Nc2ccccc2)c1	338		
CC(C)CC1CCCC1	148	-115	
NC(=O)Oc1ccc(Cc2ccccc2)cc1		148	
CC(=O)Oc1cccc(C(=O)O)c1OC(C)=O		149	
CCCc1ccc(OC)cc1	212		
